Measured values as given in paper PMC10825133, “Repurposing proteasome inhibitors for improved treatment of triple-negative breast cancer” (Cell Death Discovery, 2024).
Like-named read-outs stand apart in the source and are kept apart here.

How the values were obtained:
CAL-148 cells = assay: Resazurin-based cell viability assay, monotherapy drug screen; design: species or system human; AUC: unit not given beside the values; conditions: for AUC: area under the dose response curve, 24 h; for GRmax: drug efficacy at highest tested dose (<0 cytotoxic, 0 cytostatic, >0 partial growth inhibition)
Experimental: (§1) Eighteen pharmaceutical compounds were purchased from Selleckchem (Supplementary Table 2). Stock solutions were prepared using dimethyl sulfoxide (DMSO; Merck), physiological saline (sodium chloride 0.9%) or Milli-Q water, and stored at −80 °C. […] Matched concentration solvent vehicle controls were used for each drug concentration. The drug screens were performed in triplicate and repeated three (monotherapy) or two (combination therapy) times (Fig. 7).
(§2) The optimal seeding density per 96-well was determined for each cell line as previously described. The cells were seeded at a density of 4.0 × 10^3 to 7.5 × 10^3 (cell type dependent) in 96-well clear, flat-bottom microplates (Corning Life Sciences, Sigma-Aldrich) in 100 µl complete culture medium (Supplementary Table 1) and cultured for 24 h. Cell viability was determined using the resazurin assay in untreated cells at the time of plating (t = 0) and treated cells after 24 h drug treatment (Fig. 7). Percentage cell viability was calculated as 100% × (absorbance of treated cells – absorbance of background controls) / (absorbance of matched solvent vehicle controls – absorbance of background controls). The area under the curve (AUC), half-maximal inhibitory concentration (IC50), drug potency (GR50), and drug efficacy (GRmax) were determined for each compound using the GRmetrics (version 1.20.0) package in R. The monotherapy data were evaluated with the IDACombo (version 1.0.2) package in R to predict potential drug combinations (Table 1). SynergyFinder (version 3.2.10) package in R was used to identify synergistic drug combinations.
(§3) Eighteen pharmaceutical compounds were purchased from Selleckchem. […] The solubility of the compound was enhanced by pre-heating the solvent (lukewarm), if necessary. […] The stock solutions were stored at -80°C. […] Matched concentration solvent vehicle controls were used for each drug concentration. The drug screens were performed in triplicate and repeated three times for the monotherapies and twice for the combination treatments. The drug(s) and corresponding controls were plated in 96-well PCR plates (VWR) and stored at -20°C (Fig. 6). The drug plates were thawed, centrifuged (3000 rpm for 30s), and acclimatized to RT before the drugs were added to the cells. New drug plates were prepared for each drug screen.
Cell viability was measured daily (day 0 [plating day] to day 4) using 0.2 mg/ml resazurin solution prepared from resazurin sodium salt (Fisher Scientific) dissolved in sterile 1xPBS (ThermoFisher Scientific). Before use, the resazurin solution was brought to RT before 10 µl (10% of cell medium volume) was added to each 96-well and incubated for 4h at 37°C. […] The slope of the curve was used to determine the optimal seeding density, i.e., the highest seeding density with linear growth between days 1 and 3.
(§4) The cells were seeded at a density of 4.0x10^3 to 7.5x10^3 (cell type-dependent) in 96-well clear, flat-bottom microplates (Corning Life Sciences, Sigma-Aldrich) in 100 µl culture medium supplemented with 10% FBS and cultured for 24h. Cell viability was determined using the resazurin assay after 24h drug treatment (Fig. 6). Percentage cell viability was calculated as 100% × (absorbance of treated cells – absorbance of background controls) / (absorbance of matched solvent vehicle controls – absorbance of background controls). Normalized growth rate inhibition (GR) was assessed using the absorbance of untreated cells after the time of plating (t = 0). […] For combination treatment, the monotherapy data were evaluated with the IDACombo (version 1.0.2)[20] package in R to predict potential drug combinations (Table 1). SynergyFinder (version 3.2.10)[21] package in R was used to identify synergistic drug combinations.

BT-549 cells = assay: as above; design: species or system human; AUC: scale not given here; conditions: for AUC: area under the dose response curve, 24 h; for GRmax: drug efficacy at highest tested dose (<0 cytotoxic, 0 cytostatic, >0 partial growth inhibition)
Experimental: (§5) Eighteen pharmaceutical compounds were purchased from Selleckchem. […] The stock solutions were stored at -80°C. […] New drug plates were prepared for each drug screen.
(§6) To determine the optimal seeding density and ensure that the cells were in the exponential phase during the duration of the experiment (approx. 52h), each cell line (BT-549, CAL-148, HCC1806, HCC38, HCC70, MCF-10A, MCF-7, MDA-MB-436, MDA-MB-453, and MDA-MB-468) was seeded at different concentrations (1000 to 16000 cells) per 96-well, as previously described. Cell viability was measured daily (day 0 [plating day] to day 4) using 0.2 mg/ml resazurin solution prepared from resazurin sodium salt (Fisher Scientific) dissolved in sterile 1xPBS (ThermoFisher Scientific). Before use, the resazurin solution was brought to RT before 10 µl (10% of cell medium volume) was added to each 96-well and incubated for 4h at 37°C. The absorbance was measured with a 560 nm excitation filter and a 615 nm emission filter in a Wallac 1420 VICTOR2™ microplate reader (Perkin Elmer). The slope of the curve was used to determine the optimal seeding density, i.e., the highest seeding density with linear growth between days 1 and 3.

HCC1806 cells = assay: as above; design: species or system human; AUC: scale not given here; conditions: for AUC: area under the dose response curve, 24 h; for GRmax: drug efficacy at highest tested dose (<0 cytotoxic, 0 cytostatic, >0 partial growth inhibition); for IC50: Homo sapiens
Experimental: as §5, §6

HCC70 cells = assay: as above; design: species or system human; AUC: scale not given here; conditions: for AUC: area under the dose response curve, 24 h; for GRmax: drug efficacy at highest tested dose (<0 cytotoxic, 0 cytostatic, >0 partial growth inhibition)
Experimental: as §5, §6

MCF-10A cells = assay: as above; design: species or system human; AUC: scale not given here; conditions: for AUC: area under the dose response curve
Experimental: as §5, §6

MCF-7 cells = assay: as above; design: species or system human; AUC: scale not given here; conditions: for AUC: area under the dose response curve, 24 h; for GRmax: drug efficacy at highest tested dose (<0 cytotoxic, 0 cytostatic, >0 partial growth inhibition)
Experimental: as §5, §6

MDA-MB-436 cells = assay: as above; design: species or system human; AUC: scale not given here; conditions: for AUC: area under the dose response curve, 24 h; for GRmax: drug efficacy at highest tested dose (<0 cytotoxic, 0 cytostatic, >0 partial growth inhibition)
Experimental: as §5, §6

MDA-MB-468 cells = assay: as above; design: species or system human; AUC: scale not given here; conditions: for AUC: area under the dose response curve, 24 h
Experimental: as §5, §6

[1] = system: eight TNBC cell lines (BT-549, CAL-148, HCC1806, HCC38, HCC70, MDA-MB-436, MDA-MB-453, MDA-MB-468); assay: Monotherapy drug screen, mean across the TNBC cell lines; conditions: for cytotoxic effect at the highest dose: by GRmax
Experimental: as §1, §2, §3, §4

SMILES	AUC (CAL-148 cells; CAL-148)	GRmax (CAL-148 cells; CAL-148)	AUC (BT-549 cells; BT-549)	GRmax (BT-549 cells; BT-549)	AUC (HCC1806 cells; HCC1806)	GRmax (HCC1806 cells; HCC1806)	AUC (HCC70 cells; HCC70)	GRmax (HCC70 cells; HCC70)	AUC (MCF-10A cells; 24 h)	AUC (MCF-7 cells; MCF-7)	GRmax (MCF-7 cells; MCF-7)	AUC (MDA-MB-436 cells; MDA-MB-436)	GRmax (MDA-MB-436 cells; MDA-MB-436)	AUC (MDA-MB-468 cells; MDA-MB-468)	cytotoxic effect at the highest dose ([1]; TNBC cell lines)	other results
N.N.O=C([O-])C1(C(=O)[O-])CCC1.[Pt+2] [Carboplatin]	0.92	0.03	0.85	0.39	0.90	0.53	0.83	−0.42	0.90	0.91	−0.15	0.91	0.41	0.81	lowest cytotoxic effects	IC50 (CAL-148 cells; CAL-148, 24 h drug treatment, read-out: IC50): 0.93 µM; IC50 (CAL-148 cells; CAL-148, growth rate inhibition concentration at GR(c) = 0.5, 24 h, read-out: GR50 (the source's name)): 0.49 µM; IC50 (BT-549 cells; BT-549, growth rate inhibition concentration at GR(c) = 0.5, 24 h, read-out: GR50 (the source's name)): 0.67 µM; IC50 (HCC70 cells; HCC70, 24 h drug treatment, read-out: IC50): 0.45 µM; IC50 (HCC70 cells; HCC70, growth rate inhibition concentration at GR(c) = 0.5, 24 h, read-out: GR50 (the source's name)): 0.27 µM; IC50 (MCF-10A cells; 24 h drug treatment, read-out: IC50): 0.73 µM; GRmax (MCF-10A cells; drug efficacy at highest tested dose (<0 cytotoxic, 0 cytostatic, >0 partial growth inhibition)): 0.19; IC50 (MCF-10A cells; growth rate inhibition concentration at GR(c) = 0.5, 24 h, read-out: GR50 (the source's name)): 0.76 µM; IC50 (MCF-7 cells; MCF-7, growth rate inhibition concentration at GR(c) = 0.5, 24 h, read-out: GR50 (the source's name)): 0.36 µM; IC50 (MDA-MB-436 cells; MDA-MB-436, growth rate inhibition concentration at GR(c) = 0.5, 24 h, read-out: GR50 (the source's name)): 0.87 µM; IC50 (MDA-MB-468 cells; MDA-MB-468, 24 h drug treatment, read-out: IC50): 0.47 µM; GRmax (MDA-MB-468 cells; MDA-MB-468, drug efficacy at highest tested dose (<0 cytotoxic, 0 cytostatic, >0 partial growth inhibition)): 0.02; IC50 (MDA-MB-468 cells; MDA-MB-468, growth rate inhibition concentration at GR(c) = 0.5, 24 h, read-out: GR50 (the source's name)): 0.24 µM
CC(C)C[C@H](NC(=O)[C@H](CCc1ccccc1)NC(=O)CN1CCOCC1)C(=O)N[C@@H](Cc1ccccc1)C(=O)N[C@@H](CC(C)C)C(=O)[C@@]1(C)CO1 [Carfilzomib]	0.84	−0.01	0.67	0.37	0.73	0.31	0.76	−0.57	0.66	0.81	−0.45	0.73	−0.89	0.65	–	IC50 (CAL-148 cells; Homo sapiens, CAL-148, growth rate inhibition concentration at GR(c) = 0.5, 24 h, read-out: GR50 (the source's name)): 0.37 µM; IC50 (BT-549 cells; Homo sapiens, BT-549, 24 h drug treatment, read-out: IC50): 4.4 µM; IC50 (BT-549 cells; Homo sapiens, BT-549, growth rate inhibition concentration at GR(c) = 0.5, 24 h, read-out: GR50 (the source's name)): 1 µM; IC50 (HCC1806 cells; HCC1806, 24 h drug treatment, read-out: IC50): 1.7 µM; IC50 (HCC1806 cells; HCC1806, growth rate inhibition concentration at GR(c) = 0.5, 24 h, read-out: GR50 (the source's name)): 0.95 µM; IC50 (HCC70 cells; Homo sapiens, HCC70, 24 h drug treatment, read-out: IC50): 2.1 µM; IC50 (HCC70 cells; Homo sapiens, HCC70, growth rate inhibition concentration at GR(c) = 0.5, 24 h, read-out: GR50 (the source's name)): 0.48 µM; IC50 (MCF-10A cells; Homo sapiens, 24 h drug treatment, read-out: IC50): 0.54 µM; IC50 (MCF-10A cells; Homo sapiens, growth rate inhibition concentration at GR(c) = 0.5, 24 h, read-out: GR50 (the source's name)): 0.11 µM; IC50 (MCF-7 cells; Homo sapiens, MCF7, MCF-7, growth rate inhibition concentration at GR(c) = 0.5, 24 h, read-out: GR50 (the source's name)): 0.19 µM; IC50 (MDA-MB-436 cells; Homo sapiens, MDA-MB-436, growth rate inhibition concentration at GR(c) = 0.5, 24 h, read-out: GR50 (the source's name)): 0.0018 µM; IC50 (MDA-MB-468 cells; Homo sapiens, MDA-MB-468, 24 h drug treatment, read-out: IC50): 0.46 µM; IC50 (MDA-MB-468 cells; Homo sapiens, MDA-MB-468, growth rate inhibition concentration at GR(c) = 0.5, 24 h, read-out: GR50 (the source's name)): 0.11 µM; IC50 ([1]; Homo sapiens, 24 h, read-out: GR50 (mean ± SD)): 440 ± 340 nM; area under the dose response curve (AUC), mean ± SD ([1]; TNBC cell lines, 24 h): 0.73 ± 0.10
CC1=C(O)C(=O)C=C2C1=CC=C1[C@@]2(C)CC[C@@]2(C)[C@@H]3C[C@](C)(C(=O)O)CC[C@]3(C)CC[C@]12C [Celastrol]	0.85	−0.84	0.82	−0.51	0.81	−0.82	0.82	−0.98	0.81	0.89	−0.30	0.85	−0.63	0.75	cytotoxic	IC50 (CAL-148 cells; Homo sapiens, CAL-148, 24 h): 3.7 µM; IC50 (CAL-148 cells; Homo sapiens, CAL-148, 24 h, read-out: GR50 (µM)): 3.1 µM; IC50 (BT-549 cells; Homo sapiens, BT-549, 24 h): 1.3 µM; IC50 (BT-549 cells; Homo sapiens, BT-549, 24 h, read-out: GR50 (µM)): 1.5 µM; IC50 (HCC1806 cells; HCC1806, 24 h): 2.1 µM; IC50 (HCC1806 cells; HCC1806, 24 h, read-out: GR50 (µM)): 3.4 µM; IC50 (HCC70 cells; Homo sapiens, HCC70, 24 h): 1.8 µM; IC50 (HCC70 cells; Homo sapiens, HCC70, 24 h, read-out: GR50 (µM)): 1.2 µM; IC50 (MCF-10A cells; Homo sapiens, 24 h): 1.6 µM; IC50 (MCF-10A cells; Homo sapiens, 24 h, read-out: GR50 (µM)): 1.8 µM; IC50 (MCF-7 cells; Homo sapiens, MCF7, 24 h): 2.8 µM; IC50 (MCF-7 cells; Homo sapiens, MCF7, 24 h, read-out: GR50 (µM)): 3.3 µM; IC50 (MDA-MB-436 cells; Homo sapiens, MDA-MB-436, 24 h): 3.2 µM; IC50 (MDA-MB-436 cells; Homo sapiens, MDA-MB-436, 24 h, read-out: GR50 (µM)): 2.4 µM; IC50 (MDA-MB-468 cells; Homo sapiens, MDA-MB-468, 24 h): 1 µM; IC50 (MDA-MB-468 cells; Homo sapiens, MDA-MB-468, 24 h, read-out: GR50 (µM)): 0.75 µM
